Results on 2 compounds are retold here after patent publication US8445476B2, “Carbacephem β-lactam antibiotics” (Achaogen, Inc., priority 2007, dated 2013).

Data set [1] in a line: Pharmacokinetic study in rats. The format is in vivo. The settings on record: male, Sprague-Dawley, rat. The method, then: Male cannulated Sprague-Dawley rats (˜250 g) are administered test compounds by IV, PO, or SC routes. All animals are weighed prior to dose administration. Blood (˜0.25 mL) is collected by cannula transferred into microtainer tubes containing EDTA at time points 2 (I.V. animals only), 5, 15, 30, 60, 120, 240, 360, 480, 1440 minutes. After collection, the blood samples are centrifuged at approximately 1000×g at 2-8° C. for approximately 10 minutes. Each plasma specimen is collected, aliquoted into cluster tubes, and stored at ˜−20° C. until analysis.

Data set [2] relates to S. aureus ASAU002 (MRSA ATCC 33591). In words: MIC assay, S. aureus ASAU002. The conditions noted are these: Staphylococcus aureus. The format is cell-based. The method, then: (§1) The in vitro MIC for bacterial isolates may be obtained in the following manner: a test compound is incorporated into a series of two-fold dilutions in cation adjusted Mueller-Hinton broth (CAMHB). Different bacterial strains diluted to provide a uniform inoculum are added to the CAMHB containing test compounds. A well without test compound is included for each strain as a growth control. […] The procedures used in these experiments are generally those standardized by the Clinical and Laboratory Standards Institute (CLSI), as set forth in the CLSI publication entitled “M7-A7. Methods for dilution antimicrobial susceptibility tests for bacteria that grow aerobically; approved standard-seventh edition.” (2006), which is incorporated by reference as if fully set forth herein. The following exemplifies such a procedure although it is to be understood that modifications of the procedure may be implemented as required.
(§2) Two-fold dilutions of the test compounds are prepared in CAMHB at 2× the concentration range to be tested if the compounds are soluble in aqueous solution. Alternately, dimethylsulfoxide (DMSO) is used to prepare two-fold dilutions at 10× the concentration range to be tested. Reference drugs such as cefotaxime, vancomycin or imipenem are used as positive controls. A few isolated colonies are retrieved from a pure culture prepared on an agar plate and suspended in PBS until the turbidity of the suspension matches a 0.5 McFarland standard which is equal to approximately 10^8 sCFU/mL. This solution is further diluted in CAMHB to 10^6CFU/mL if compounds are diluted in CAMHB and 5×10^5 CFU/mL if compounds are diluted in DMSO. The CAMHB plates containing the compound dilutions are combined in equal volumes with the higher density inoculum, or 10 μL of the DMSO dilutions are added to the lower density inoculum. When S. aureus is the organism being tested and the compound is oxacillin, a beta-lactam or a carbacephem compound of the present invention, 2% NaCl is added to the growth media. The plates are then incubated for 16-20 hours at 35° C. The plates are then observed to determine which concentration of the test compound is the MIC.

Data set [3] has as its system Staphylococcus aureus Methicillin Resistance (MRSA) (ATCC 33591). In words: Neutropenic mouse infected thigh model. It counts as in vivo, mice. How it is done: Groups of 6 male specific-pathogen-free CD-1 mice weighing 22±2 g are used. Animals are rendered immunosuppressedion by two intraperitoneal injections of cyclophosphamide, the first at 150 mg/kg 4 days before infection (day −4) and the second at 100 mg/kg 1 day before infection (day −1). On day 0, animals are inoculated intramuscularly (0.1 ml/thigh) with 1×10^5 CFU/mouse of Staphylococcus aureus Methicillin Resistance (MRSA) (ATCC 33591) into right thigh. Vehicle and/or test substances are then administered (IV, SC, or PO) 2 hours later. At 26 hours after inoculation, muscle of the right thigh is harvested from each of the survival test animals. The removed muscle tissues are then homogenized in 3 to 4 ml of PBS, pH 7.4 with a ceramic mortar. Homogenates of 0.1 ml are used for serial 10-fold dilutions and plated on Muller Hinton Broth in 1.5% Bacto® Agar for CFU determination. Decrease of the CFU/g muscle of right thigh in 99 percent or more (≧99) of the animals indicates significant activity. See, e.g., Andes, D. et al., Antimicrobial Agents and Chemotherapy, 46: 1665-1670 (2002); and Griffith, D. C., et al., Antimicrobial Agents and Chemotherapy, 50: 1628-1632 (2006).
Test compounds were dosed s.c. at 60, 120 or 240 mg/kg/day, except vancomycin at a single dose level of 220 mg/kg/day.

Data set [4] deals with S. aureus ASAU1029 (CA-MRSA, USA300). In words: MIC assay, S. aureus ASAU1029. The format is cell-based. The conditions noted are these: Staphylococcus aureus, read-out: MIC ASAU 1029. The method, then:
as §1, §2

The subject of data set [5] is S. aureus ASAU1033 (MRSA, CIP, ERY, CLIN, TET, GEN resistant). In words: MIC assay, S. aureus ASAU1033. The settings on record: Staphylococcus aureus, read-out: MIC ASAU 1033. The format is cell-based. The method, then:
as §1, §2

For data set [6], the system named is S. aureus ASAU1028 (CA-MRSA, USA400). In words: MIC assay, S. aureus ASAU1028. The format is cell-based. The settings on record: Staphylococcus aureus, read-out: MIC ASAU 1028. The method, then: as §1, §2
Data set [7] has as its system S. aureus ASAU001 (Susceptible Organism ATCC 29213). Nature of the data set: MIC assay, S. aureus ASAU001. The format is cell-based. The settings on record: Staphylococcus aureus, ATCC29213, read-out: MIC ASAU 001. The method, then: as §1, §2
Data set [8] deals with S. aureus ASAU1043 (MRSA, CIP, ERY, CLI, GEN resistant). In words: MIC assay, S. aureus ASAU1043. It counts as cell-based. The settings on record: Staphylococcus aureus, read-out: MIC ASAU 1043. The method, then: as §1, §2
The conditions of data set [9]: previously reported (Griffith et al.); cited from earlier work.
In data set [10] the test system is S. aureus ASAU002 (MRSA ATCC 33591). The conditions noted are these: previously reported (Craig et al.); cited from earlier work.
Data set [11] concerns Staphylococcus aureus Methicillin Resistance (MRSA) (ATCC 33591). The settings on record: 160 mg/kg/day, dosed 4 times per day, previously reported (Craig et al.); cited from earlier work.
The mark [12] stands for this setting: S. aureus ASAU002, MRSA ATCC 33591, read-out: MIC ASAU 002.

≈ marks a conversion by molar mass, not a printed value. Read-outs that look alike come from different tables or passages of the source.

In general, half-life refers to the time needed for the level to fall by half in the phase considered. The low end stands for fast loss, the high end for slow loss. One may read the MIC as the lowest concentration found to suppress growth. Consider `NCCSCc1cnccc1SC1=C(C(=O)O)N2C(=O)[C@@H](NC(=O)/C(=N\O)c3nsc(N)n3)[C@H]2CC1` [48/1, (6R,7S,Z)-7-(2-(5-amino-1,2,4-thiadiazol-3-yl)-2-(hydroxyimino)acetamido)-3-(3-((2-aminoethylthio)methyl)pyridin-4-ylthio)-8-oxo-1-aza-bicyclo[4.2.0]oct-2-ene-2-carboxylic Acid], for which, in [1] (in vivo, 10 mg/kg), the “time uncorrected plasma concentrations are above the MIC” value came to 2 h. The compound also gave a half-life in data set [1] (plasma, rats, 10 mg/kg IV) of 1.8 h. Further, in [1] (plasma, rats, 10 mg/kg IV, read-out: volume of distribution Vss), the Vd stood at 1.08 L/kg. In addition, the MIC in data set [2] (setting [12]) was no more than 1 µg/mL; in data set [2] (strain used in the infected thigh model (ATCC 33591), read-out: MIC) it was 1 µg/mL (≈ 1.82 µM); in [4] it was no more than 1 µg/mL; in [5] it was 1 to 8 µg/mL (≈ 1.82 to 14.5 µM); in data set [6], no more than 1 µg/mL; in data set [7], no more than 1 µg/mL. For the same compound, in data set [8], the MIC is 1 to 8 µg/mL (≈ 1.82 to 14.5 µM). The “log kill (CFU) in thigh” value in data set [3] (s.c., lowest dose of 60 mg/kg/day (TID 20 mg/kg/8 h)) stood at 1 log kill. Also, the “efficacy compared with vancomycin” value in [3] (vancomycin 220 mg/kg/day (BID 110 mg/kg/12 h)) was “more effective than vancomycin”.

Broadly, the Vss is a proportionality between amount in the body and measured concentration, not a real space. With `Nc1nnc(SC2=C(C(=O)O)N3C(=O)[C@@H](NC(=O)/C(=N\O)c4nc(N)sc4Cl)[C@H]3CC2)s1` [Comparative Compound 2], in data set [9], the T1/2 is 1.47 h. For the same compound, the Vss in [9] is recorded as 0.91 L/kg. Moreover, the MIC in [10] is 1 µg/mL (≈ 1.93 µM); in [2] (setting [12]), no more than 1 µg/mL; in [7], no more than 1 µg/mL. Further, the “log kill in CFU count” value in data set [11] is 3 log kill.
